Paper PMC12613848, “First in human phase 1 study of DT2216, a selective BCL-xL degrader, in patients with relapsed/refractory solid malignancies” (Journal of Hematology & Oncology, 2025)
Entries after “also recorded” stand apart in the source; their conditions may differ. Like-named read-outs stand apart in the source and are kept apart here.

Assay: Plasma pharmacokinetics of DT2216 in patients, phase 1 dose escalation
Assay type: in vivo, human
Settings: for ArAUC0−24 (accumulation ratio) / Vd / clearance / half-life / AUC(0-t) / AUC(0-inf) / Cmax / Tmax: plasma; for Vd / clearance / half-life / AUC(0-t) / AUC(0-inf) / Cmax / Tmax: human; for AUC(0-inf): read-out: AUC0−∞; for Cmax: read-out: Cmax; for Tmax: median (min, max)
Method: Dose escalation consisted of the administration of DT2216 intravenously twice weekly at several different doses outlined in protocol attached. The starting dose was 0.04 mg/kg, established based on pre-clinical toxicity studies. Safety was evaluated using CTCAE version 5.0. The initial three dose levels enrolled one patient, following which for dose level 4 and 5, a 3 + 3 design was utilized following a 100% incremental dose increase for dose levels 2 to 5 until the first dose limiting toxicity (DLT) in cycle 1 was observed. Thereafter, a modified Fibonacci sequence was used to define dose escalation increments until the maximum tolerated dose (MTD) was reached as described in protocol. If no dose-limiting toxicity (DLT) was observed during the DLT monitoring period of first 28 days, the next patient was enrolled at the next higher dose level. Dose-limiting toxicities (DLTs) during the first treatment cycle were defined as any Grade 5 toxicity; Grade 4 neutropenia lasting > 7 days; febrile neutropenia; Grade 4 thrombocytopenia or Grade 3 thrombocytopenia with clinically significant hemorrhage or lasting ≥ 7 days; and Grade ≥ 3 non-hematologic toxicities, excluding nausea, vomiting, or diarrhea lasting ≤ 3 days or transient laboratory abnormalities resolving within 72 h. Hepatotoxicity meeting Hy’s law criteria was also considered a DLT. Transient Grade 3–4 electrolyte abnormalities resolving to ≤ Grade 2 within 72 h were not considered DLTs.
Patients were allowed a maximum of two intra-patient dose escalations. Patients received DT2216 by intravenous infusion on days 1 and 4 weekly for at least 4 weeks, with each cycle consisting of a 28-day cycle for a maximum duration of 1 year until disease progression, unacceptable toxicity, or other withdrawal criteria, as listed in the protocol. The extent of disease was evaluated using imaging studies and disease-appropriate tumor markers every 8 weeks from day 1 of the first cycle. RP2D was established based on MTD as well as other relevant data, including clinical signals of activity, PK, and PD data.
Premedication prior to each infusion was at the discretion of the investigator or according to institutional guidelines. Patient assessment and follow-up procedures can be found in the schedule of assessments in this study. The clinical response was evaluated using RECIST v1.1 per protocol. Blood samples were collected for PK analysis before and after post-infusion at defined intervals, along with platelet counts. Exploratory biomarkers include (but are not limited to) the assessment of BCL-XL and VHL levels in peripheral white blood cells (WBC).
Throughout the course of the dose escalation trial, only one dose-limiting toxicity was observed, with grade 4 thrombocytopenia at a dose level of 0.32 mg/kg. […] The pharmacokinetic parameters of DT2216 were determined in patients following doses on Cycle 1 Day 1 and Cycle 1 Day 22 (Tables 4 and 5). […] AUC0-∞ values ranged from 8650 to 72,300 ng · h/mL over the dose range of 0.04 mg/kg 0.4 mg/kg. […] The volume of distribution at steady state (Vss) was small (< 100 mL/kg) and consistent across the dose groups. Following repeated dosing, accumulation of DT2216 in plasma was not observed with twice weekly dosing, with accumulation ratio values ranging from 0.74 to 1.07 on Cycle 1 Day 22 ([…]) across the dose groups.

[1] = iv, 0.04 mg/kg, Cycle 1 Day 1, 0.04 mg/kg IV, mean (CV%), N = 1
[2] = iv, 0.04 mg/kg, Cycle 1 Day 22, 0.04 mg/kg IV BIW, mean (CV%), N = 1
[3] = iv, 0.08 mg/kg, Cycle 1 Day 1, 0.08 mg/kg IV, mean (CV%), N = 1
[4] = iv, 0.08 mg/kg, Cycle 1 Day 22, 0.08 mg/kg IV BIW, mean (CV%), N = 1
[5] = iv, 0.12 mg/kg, Cycle 1 Day 1, 0.12 mg/kg IV, mean (CV%), N = 1

Cc1ncsc1-c1ccc([C@H](C)NC(=O)[C@@H]2C[C@@H](O)CN2C(=O)[C@@H](NC(=O)CCCCCC(=O)N2CCN(CC[C@H](CSc3ccccc3)Nc3ccc(S(=O)(=O)NC(=O)c4ccc(N5CCN(CC6=C(c7ccc(Cl)cc7)CCC(C)(C)C6)CC5)cc4)cc3S(=O)(=O)C(F)(F)F)CC2)C(C)(C)C)cc1 [DT2216]
dose proportionality of plasma exposure (AUC) (0.04 to 0.4 mg/kg IV BIW): dose proportional with no dose accumulation; also recorded: dose proportional increase in DT2216 exposure
maximum concentration (0.4 BIW dose): 8590 ng/mL
ArAUC0−24 (accumulation ratio) (Cycle 1 Day 22, 0.04 mg/kg IV BIW, mean (CV%), N = 1): 0.90 (N = 1)
ArAUC0−24 (accumulation ratio) (Cycle 1 Day 22, 0.08 mg/kg IV BIW, mean (CV%), N = 1): 0.74 (N = 1)
ArAUC0−24 (accumulation ratio) (Cycle 1 Day 22, 0.12 mg/kg IV BIW, mean (CV%), N = 1): 1.07 (N = 1)
ArAUC0−24 (accumulation ratio) (Cycle 1 Day 22, 0.24 mg/kg IV BIW, mean (CV%), N = 6): 1.08 (11.6) (N = 6)
ArAUC0−24 (accumulation ratio) (Cycle 1 Day 22, 0.32 mg/kg IV BIW, mean (CV%), N = 5): 1.02 (6.7) (N = 5)
ArAUC0−24 (accumulation ratio) (Cycle 1 Day 22, 0.4 mg/kg IV BIW, mean (CV%), N = 4): 1.01 (8.7) (N = 4)
steady state of plasma concentration (based on pre-dose and 2-hour post infusion plasma concentrations): reached by at least Cycle 1, Day 15
Vd (intravenous, consistent across the dose groups, read-out: volume of distribution at steady state (Vss)): < 0.1 L/kg
clearance (intravenous, over the dose range tested, read-out: clearance values): 0.0683 to 0.132 mL/min/kg
half-life (intravenous, over the dose range tested, independent of dose, read-out: mean half-life): 7.09 to 12.8 h
AUC(0-t) (iv, 0.04 mg/kg, Cycle 1 Day 1, 0.04 mg/kg IV, mean (CV%), N = 1, read-out: AUC0−24): 5920 ng·h/mL
AUC(0-inf) [1]: 8650 ng·h/mL
AUC(0-t) (iv, 0.04 mg/kg, Cycle 1 Day 1, 0.04 mg/kg IV, mean (CV%), N = 1, read-out: AUClast): 8470 ng·h/mL
clearance (iv, 0.04 mg/kg, Cycle 1 Day 1, 0.04 mg/kg IV, mean (CV%), N = 1, read-out: CL (converted)): 0.077 mL/min/kg
Cmax [1]: 738 ng/mL
half-life (iv, 0.04 mg/kg, Cycle 1 Day 1, 0.04 mg/kg IV, mean (CV%), N = 1, read-out: T½ (converted)): 12.8 h
Vd (iv, 0.04 mg/kg, Cycle 1 Day 1, 0.04 mg/kg IV, mean (CV%), N = 1, read-out: Vdss): 0.0776 L/kg
Tmax (iv, 0.04 mg/kg, Cycle 1 Day 1, 0.04 mg/kg IV, N = 1): 0.75 h
AUC(0-t) (iv, 0.04 mg/kg, Cycle 1 Day 22, 0.04 mg/kg IV BIW, mean (CV%), N = 1, read-out: AUC0−24): 5350 ng·h/mL
AUC(0-inf) [2]: 6230 ng·h/mL
AUC(0-t) (iv, 0.04 mg/kg, Cycle 1 Day 22, 0.04 mg/kg IV BIW, mean (CV%), N = 1, read-out: AUClast): 5390 ng·h/mL
clearance (iv, 0.04 mg/kg, Cycle 1 Day 22, 0.04 mg/kg IV BIW, mean (CV%), N = 1, read-out: CL (converted)): 0.107 mL/min/kg
Cmax [2]: 541 ng/mL
half-life (iv, 0.04 mg/kg, Cycle 1 Day 22, 0.04 mg/kg IV BIW, mean (CV%), N = 1, read-out: T½ (converted)): 8.18 h
Vd (iv, 0.04 mg/kg, Cycle 1 Day 22, 0.04 mg/kg IV BIW, mean (CV%), N = 1, read-out: Vdss): 0.081 L/kg
Tmax (iv, 0.04 mg/kg, Cycle 1 Day 22, 0.04 mg/kg IV BIW, N = 1): 2.5 h
AUC(0-t) (iv, 0.08 mg/kg, Cycle 1 Day 1, 0.08 mg/kg IV, mean (CV%), N = 1, read-out: AUC0−24): 13400 ng·h/mL
AUC(0-inf) [3]: 19500 ng·h/mL
AUC(0-t) (iv, 0.08 mg/kg, Cycle 1 Day 1, 0.08 mg/kg IV, mean (CV%), N = 1, read-out: AUClast): 19100 ng·h/mL
clearance (iv, 0.08 mg/kg, Cycle 1 Day 1, 0.08 mg/kg IV, mean (CV%), N = 1, read-out: CL (converted)): 0.0683 mL/min/kg
Cmax [3]: 1450 ng/mL
half-life (iv, 0.08 mg/kg, Cycle 1 Day 1, 0.08 mg/kg IV, mean (CV%), N = 1, read-out: T½ (converted)): 12.5 h
Vd (iv, 0.08 mg/kg, Cycle 1 Day 1, 0.08 mg/kg IV, mean (CV%), N = 1, read-out: Vdss): 0.07 L/kg
Tmax (iv, 0.08 mg/kg, Cycle 1 Day 1, 0.08 mg/kg IV, N = 1): 1.5 h
AUC(0-t) (iv, 0.08 mg/kg, Cycle 1 Day 22, 0.08 mg/kg IV BIW, mean (CV%), N = 1, read-out: AUC0−24): 9840 ng·h/mL
AUC(0-inf) [4]: 11700 ng·h/mL
AUC(0-t) (iv, 0.08 mg/kg, Cycle 1 Day 22, 0.08 mg/kg IV BIW, mean (CV%), N = 1, read-out: AUClast): 9910 ng·h/mL
clearance (iv, 0.08 mg/kg, Cycle 1 Day 22, 0.08 mg/kg IV BIW, mean (CV%), N = 1, read-out: CL (converted)): 0.114 mL/min/kg
Cmax [4]: 962 ng/mL
half-life (iv, 0.08 mg/kg, Cycle 1 Day 22, 0.08 mg/kg IV BIW, mean (CV%), N = 1, read-out: T½ (converted)): 8.63 h
Vd (iv, 0.08 mg/kg, Cycle 1 Day 22, 0.08 mg/kg IV BIW, mean (CV%), N = 1, read-out: Vdss): 0.091 L/kg
Tmax (iv, 0.08 mg/kg, Cycle 1 Day 22, 0.08 mg/kg IV BIW, N = 1): 2.5 h
AUC(0-t) (iv, 0.12 mg/kg, Cycle 1 Day 1, 0.12 mg/kg IV, mean (CV%), N = 1, read-out: AUC0−24): 12900 ng·h/mL
AUC(0-inf) [5]: 18000 ng·h/mL
AUC(0-t) (iv, 0.12 mg/kg, Cycle 1 Day 1, 0.12 mg/kg IV, mean (CV%), N = 1, read-out: AUClast): 17900 ng·h/mL
clearance (iv, 0.12 mg/kg, Cycle 1 Day 1, 0.12 mg/kg IV, mean (CV%), N = 1, read-out: CL (converted)): 0.111 mL/min/kg
Cmax [5]: 3710 ng/mL
half-life (iv, 0.12 mg/kg, Cycle 1 Day 1, 0.12 mg/kg IV, mean (CV%), N = 1, read-out: T½ (converted)): 8.92 h
Vd (iv, 0.12 mg/kg, Cycle 1 Day 1, 0.12 mg/kg IV, mean (CV%), N = 1, read-out: Vdss): 0.0557 L/kg
Tmax (iv, 0.12 mg/kg, Cycle 1 Day 1, 0.12 mg/kg IV, N = 1): 0.75 h
AUC(0-t) (iv, 0.12 mg/kg, Cycle 1 Day 22, 0.12 mg/kg IV BIW, mean (CV%), N = 1, read-out: AUC0−24): 13900 ng·h/mL
AUC(0-inf) (iv, 0.12 mg/kg, Cycle 1 Day 22, 0.12 mg/kg IV BIW, mean (CV%), N = 1): 14500 ng·h/mL
AUC(0-t) (iv, 0.12 mg/kg, Cycle 1 Day 22, 0.12 mg/kg IV BIW, mean (CV%), N = 1, read-out: AUClast): 13900 ng·h/mL
